Measured values taken from paper PMC3026871 (Cancer chemotherapy and pharmacology, 2010).
Marks after values point to notes of the source that are not given here.

Test: Plasma pharmacokinetics in patients
Conditions: for Cmin, Mean (SD) / concentration at 6 h: 6 hours after the second dose; for AUC(0-t) / Cmax / concentration at 24 h / Tmax / concentration at 6 h: plasma, oral; for concentration at 24 h / concentration at 6 h: Cmin; for concentration at 24 h: 24 hours after the daily dose
[1] = QID-7D 25 mg, Day 7, Dose 2, steady state, n=6
[2] = QID-7D 35 mg, Day 7, Dose 2, steady state, n=3
[3] = QID-7D 45 mg, Day 7, Dose 2, steady state, n=3
[4] = QID-7D 55 mg, Day 7, Dose 2, steady state, n=4
[5] = human, 5 mg, Mean (SD), QD-7D 5 mg, Day 7, steady state, n=4
[6] = human, 10 mg, Mean (SD), QD-7D 10 mg, Day 7, steady state, n=4
[7] = human, 20 mg, Mean (SD), QD-7D 20 mg, Day 7, steady state, n=3
[8] = human, 25 mg, Mean (SD), QID-7D 25 mg, Day 7, Dose 2, steady state, n=6
[9] = human, 30 mg, Mean (SD), QD-7D 30 mg, Day 7, steady state, n=6
[10] = human, 35 mg, Mean (SD), QID-7D 35 mg, Day 7, Dose 2, steady state, n=3
[11] = human, 40 mg, QD-7D 40 mg, Day 7, steady state, individual data, n=1
[12] = human, 45 mg, Mean (SD), QID-7D 45 mg, Day 7, Dose 2, steady state, n=3
[13] = human, 55 mg, Mean (SD), QID-7D 55 mg, Day 7, Dose 2, steady state, n=4
[14] = human, 55 mg, Mean (SD), QID/M-7D 55 mg, Day 7, Dose 2, steady state, n=3

Structure (SMILES): O=C(O)c1ccc(Nc2ncc3c(n2)-c2ccc(Cl)cc2C(c2c(F)cccc2F)=NC3)cc1 [MLN8054]
- dose proportionality of AUC0-24 hr and Cmax (QD dosing): roughly dose-proportional
- Peak-to-Trough Ratio (Cmax/Cmin) (QD dosing, all dose levels): approximately 5
- Geometric Mean Peak-to-Trough Ratio (Cmax/Cmin) (QD-7D 5 mg, Day 7, steady state, n=4): 4.99
- Geometric Mean Peak-to-Trough Ratio (Cmax/Cmin) (QD-7D 10 mg, Day 7, steady state, n=4): 5.10
- Geometric Mean Peak-to-Trough Ratio (Cmax/Cmin) (QD-7D 20 mg, Day 7, steady state, n=3): 5.09
- Geometric Mean Peak-to-Trough Ratio (Cmax/Cmin) (QD-7D 30 mg, Day 7, steady state, n=6): 4.72
- Peak-to-Trough Ratio (Cmax/Cmin) (QD-7D 40 mg, Day 7, steady state, individual data, n=1): 6.59 ^†
- Geometric Mean Peak-to-Trough Ratio (Cmax/Cmin) [1]: 1.58
- Cmin, Mean (SD) [1]: 720 (359) nM
- Geometric Mean Peak-to-Trough Ratio (Cmax/Cmin) [2]: 1.32
- Cmin, Mean (SD) [2]: 1464 (301) nM
- Geometric Mean Peak-to-Trough Ratio (Cmax/Cmin) [3]: 1.45
- Cmin, Mean (SD) [3]: 1139 (803) nM
- Geometric Mean Peak-to-Trough Ratio (Cmax/Cmin) [4]: 1.44
- Cmin, Mean (SD) [4]: 1802 (846) nM
- Geometric Mean Peak-to-Trough Ratio (Cmax/Cmin) (QID/M-7D 55 mg, Day 7, Dose 2, steady state, n=3): 1.81
- Geometric Mean Peak-to-Trough Ratio (Cmax/Cmin) (QID/M-7D 60 mg, Day 7, Dose 2, steady state, n=6): 1.80
- Geometric Mean Peak-to-Trough Ratio (Cmax/Cmin) (QID/M-7D 70 mg, Day 7, Dose 2, steady state, n=3): 1.65
- Geometric Mean Peak-to-Trough Ratio (Cmax/Cmin) (QID/M-7D 80 mg, Day 7, Dose 2, steady state, n=3): 1.35
- Geometric Mean Peak-to-Trough Ratio (Cmax/Cmin) (QID/M-14D 60 mg, Day 14, Dose 2, steady state, n=3): 1.29
- Peak-to-Trough Ratio (Cmax/Cmin) (QID/M-21D 60 mg, Day 21, Dose 2, steady state, individual data, n=1): 1.59 ^†
- MLN8054 concentrations between the second and third doses (QID/M-21D 60 mg, days 14 and 21, 1 patient): < 2000 nM
- concentration at 7 day (human, in vivo, 60 mg): ~2000 nM
- concentration at 14 day (human, in vivo, 60 mg): > 2000 nM
- AUC(0-t) (human, 5 mg, AUC0–24, Mean (SD), QD-7D 5 mg, Day 7, steady state, n=4): 6.16 µM·h
- Cmax [5]: 521 nM
- concentration at 24 h [5]: 162 nM
- Tmax [5]: 1.7 h
- AUC(0-t) (human, 10 mg, AUC0–24, Mean (SD), QD-7D 10 mg, Day 7, steady state, n=4): 7.53 µM·h
- Cmax [6]: 724 nM
- concentration at 24 h [6]: 154 nM
- Tmax [6]: 3.8 h
- AUC(0-t) (human, 20 mg, AUC0–24, Mean (SD), QD-7D 20 mg, Day 7, steady state, n=3): 13.5 µM·h
- Cmax [7]: 1180 nM
- concentration at 24 h [7]: 240 nM
- Tmax [7]: 3.3 h
- AUC(0-t) (human, 25 mg, AUC0–24, Mean (SD), QID-7D 25 mg, Day 7, Dose 2, steady state, n=6): 4.85 µM·h
- Cmax [8]: 1050 nM
- concentration at 6 h [8]: 720 nM
- Tmax [8]: 2.5 h
- AUC(0-t) (human, 30 mg, AUC0–24, Mean (SD), QD-7D 30 mg, Day 7, steady state, n=6): 28.2 µM·h
- Cmax [9]: 2360 nM
- concentration at 24 h [9]: 912 nM
- Tmax [9]: 3 h
- AUC(0-t) (human, 35 mg, AUC0–24, Mean (SD), QID-7D 35 mg, Day 7, Dose 2, steady state, n=3): 9.71 µM·h
- Cmax [10]: 1970 nM
- concentration at 6 h [10]: 1460 nM
- Tmax [10]: 1.5 h
- AUC(0-t) (human, 40 mg, AUC0–24, QD-7D 40 mg, Day 7, steady state, individual data, n=1): 24.2 µM·h
- Cmax [11]: 3040 nM
- concentration at 24 h [11]: 461 nM
- Tmax [11]: 1 h
- AUC(0-t) (human, 45 mg, AUC0–24, Mean (SD), QID-7D 45 mg, Day 7, Dose 2, steady state, n=3): 7.55 µM·h
- Cmax [12]: 1530 nM
- concentration at 6 h [12]: 1140 nM
- Tmax [12]: 0.8 h
- AUC(0-t) (human, 55 mg, AUC0–24, Mean (SD), QID-7D 55 mg, Day 7, Dose 2, steady state, n=4): 12.5 µM·h
- AUC(0-t) (human, 55 mg, AUC0–24, Mean (SD), QID/M-7D 55 mg, Day 7, Dose 2, steady state, n=3): 10.7 µM·h
- Cmax [13]: 2480 nM
- Cmax [14]: 2310 nM
- concentration at 6 h [13]: 1800 nM
- concentration at 6 h [14]: 1310 nM
- Tmax [13]: 1.2 h
- Tmax [14]: 1 h
- AUC(0-t) (human, 60 mg, AUC0–24, Mean (SD), QID/M-7D 60 mg, Day 7, Dose 2, steady state, n=6): 8.38 µM·h
- AUC(0-t) (human, 60 mg, AUC0–24, Mean (SD), QID/M-14D 60 mg, Day 14, Dose 2, steady state, n=3): 13.2 µM·h
- AUC(0-t) (human, 60 mg, AUC0–24, QID/M-21D 60 mg, Day 21, Dose 2, steady state, individual data, n=1): 7.03 µM·h
